{"source": "patent US20230151025A1", "about": "“SUBSTITUTED THIAZOLOPYRIDINES, SALTS THEREOF AND THEIR USE AS HERBICIDALLY ACTIVE SUBSTANCES” (Bayer Aktiengesellschaft, priority 2020, published 2023)"}
{"system": "Abutilon theophrasti (ABUTH)", "assay": "Herbicidal pre-emergence action (A), 1280 g/ha", "assay_type": "in vivo", "details": "visual grading after ca. 3 weeks vs untreated controls, 100% = plants have died off, 0% = as control plants", "summary_of_the_method": "(§1)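 Visual grading of plant damage in percent (0% as untreated control, 100% dead) was done about 3 weeks after treatment. Compounds, as WP or EC in water with 0.5% additive, had been sprayed at 600 l/ha onto the covering soil of freshly sown sandy loam pots.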", "units": {"ABUTH, herbicidal effect in percent (%)": "%"}}
{"smiles": "Clc1cc2scnc2nc1-c1ccsc1Cl", "note": "[Example I-190]", "ABUTH, herbicidal effect in percent (%)": 90}
{"system": "Alopecurus myosuroides (ALOMY)", "assay": "Herbicidal pre-emergence action (A), 1280 g/ha", "assay_type": "in vivo", "details": "visual grading after ca. 3 weeks vs untreated controls, 100% = plants have died off, 0% = as control plants", "summary_of_the_method": "as §1", "units": {"ALOMY, herbicidal effect in percent (%)": "%"}}
{"smiles": "Clc1cc2scnc2nc1-c1ccsc1Cl", "note": "[Example I-190]", "ALOMY, herbicidal effect in percent (%)": 100}
{"system": "Amaranthus retroflexus (AMARE)", "assay": "Herbicidal pre-emergence action (A), 1280 g/ha", "assay_type": "in vivo", "details": "visual grading after ca. 3 weeks vs untreated controls", "summary_of_the_method": "as §1", "units": {"herbicidal effect AMARE": "%"}}
{"smiles": "Clc1cc2scnc2nc1-c1ccsc1Cl", "note": "[Example I-190]", "herbicidal effect AMARE": 90}
{"system": "Echinochloa crus-galli (ECHCG)", "assay": "Herbicidal pre-emergence action (A), 1280 g/ha", "assay_type": "in vivo", "details": "visual grading after ca. 3 weeks vs untreated controls, 100% = plants have died off, 0% = as control plants", "summary_of_the_method": "as §1", "units": {"ECHCG, herbicidal effect in percent (%)": "%"}}
{"smiles": "Clc1cc2scnc2nc1-c1ccsc1Cl", "note": "[Example I-190]", "ECHCG, herbicidal effect in percent (%)": 100}
{"system": "Kochia scoparia (KCHSC; Bassia scoparia)", "assay": "Herbicidal pre-emergence action (A), 1280 g/ha", "assay_type": "in vivo", "details": "visual grading after ca. 3 weeks vs untreated controls", "summary_of_the_method": "as §1", "units": {"herbicidal effect KCHSC": "%"}}
{"smiles": "Clc1cc2scnc2nc1-c1ccsc1Cl", "note": "[Example I-190]", "herbicidal effect KCHSC": 90}
{"system": "Lolium rigidum (LOLRI)", "assay": "Herbicidal pre-emergence action (A), 1280 g/ha", "assay_type": "in vivo", "details": "visual grading after ca. 3 weeks vs untreated controls, 100% = plants have died off, 0% = as control plants", "summary_of_the_method": "as §1", "units": {"LOLRI, herbicidal effect in percent (%)": "%"}}
{"smiles": "Clc1cc2scnc2nc1-c1ccsc1Cl", "note": "[Example I-190]", "LOLRI, herbicidal effect in percent (%)": 100}
{"system": "Matricaria inodora (MATIN)", "assay": "Herbicidal pre-emergence action (A), 1280 g/ha", "assay_type": "in vivo", "details": "visual grading after ca. 3 weeks vs untreated controls", "summary_of_the_method": "as §1", "units": {"herbicidal effect MATIN": "%"}}
{"smiles": "Clc1cc2scnc2nc1-c1ccsc1Cl", "note": "[Example I-190]", "herbicidal effect MATIN": 100}
{"system": "Poa annua (POAAN)", "assay": "Herbicidal pre-emergence action (A), 1280 g/ha", "assay_type": "in vivo", "details": "visual grading after ca. 3 weeks vs untreated controls, 100% = plants have died off, 0% = as control plants", "summary_of_the_method": "as §1", "units": {"POAAN, herbicidal effect in percent (%)": "%"}}
{"smiles": "Clc1cc2scnc2nc1-c1ccsc1Cl", "note": "[Example I-190]", "POAAN, herbicidal effect in percent (%)": 100}
{"system": "Setaria viridis (SETVI)", "assay": "Herbicidal pre-emergence action (A), 1280 g/ha", "assay_type": "in vivo", "details": "visual grading after ca. 3 weeks vs untreated controls", "summary_of_the_method": "as §1", "units": {"herbicidal effect SETVI": "%"}}
{"smiles": "Clc1cc2scnc2nc1-c1ccsc1Cl", "note": "[Example I-190]", "herbicidal effect SETVI": 100}
{"system": "Stellaria media (STEME)", "assay": "Herbicidal pre-emergence action (A), 1280 g/ha", "assay_type": "in vivo", "details": "visual grading after ca. 3 weeks vs untreated controls", "summary_of_the_method": "as §1", "units": {"herbicidal effect STEME": "%"}}
{"smiles": "Clc1cc2scnc2nc1-c1ccsc1Cl", "note": "[Example I-190]", "herbicidal effect STEME": 90}
{"system": "Veronica persica (VERPE)", "assay": "Herbicidal pre-emergence action (A), 1280 g/ha", "assay_type": "in vivo", "details": "visual grading after ca. 3 weeks vs untreated controls", "summary_of_the_method": "as §1", "units": {"herbicidal effect VERPE": "%"}}
{"smiles": "Clc1cc2scnc2nc1-c1ccsc1Cl", "note": "[Example I-190]", "herbicidal effect VERPE": 90}
{"system": "Alopecurus myosuroides (ALOMY)", "assay": "Herbicidal post-emergence action (B), 1280 g/ha", "assay_type": "in vivo", "details": "rated visually after about 3 weeks vs untreated controls", "summary_of_the_method": "(§2)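 Greenhouse-grown weeds at the one-leaf stage received a foliar spray of the formulated compound (WP or EC, 0.5% additive, 600 L/ha). Damage was scored visually after about 3 weeks on a 0–100% scale against untreated plants.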", "units": {"herbicidal activity ALOMY": "%"}}
{"smiles": "Clc1cc2scnc2nc1-c1ccsc1Cl", "note": "[Example I-190]", "herbicidal activity ALOMY": 100}
{"system": "Echinochloa crus-galli (ECHCG)", "assay": "Herbicidal post-emergence action (B), 1280 g/ha", "assay_type": "in vivo", "details": "rated visually after about 3 weeks vs untreated controls", "summary_of_the_method": "as §2", "units": {"herbicidal activity ECHCG": "%"}}
{"smiles": "Clc1cc2scnc2nc1-c1ccsc1Cl", "note": "[Example I-190]", "herbicidal activity ECHCG": 100}
{"system": "Kochia scoparia (KCHSC; Bassia scoparia)", "assay": "Herbicidal post-emergence action (B), 1280 g/ha", "assay_type": "in vivo", "details": "not given", "summary_of_the_method": "as §2", "units": {"herbicidal effect KCHSC": "%"}}
{"smiles": "Clc1cc2scnc2nc1-c1ccsc1Cl", "note": "[Example I-190]", "herbicidal effect KCHSC": 90}
{"system": "Poa annua (POAAN)", "assay": "Herbicidal post-emergence action (B), 1280 g/ha", "assay_type": "in vivo", "details": "rated visually after about 3 weeks vs untreated controls", "summary_of_the_method": "as §2", "units": {"herbicidal activity POAAN": "%"}}
{"smiles": "Clc1cc2scnc2nc1-c1ccsc1Cl", "note": "[Example I-190]", "herbicidal activity POAAN": 100}
{"system": "Stellaria media (STEME)", "assay": "Herbicidal post-emergence action (B), 1280 g/ha", "assay_type": "in vivo", "details": "not given", "summary_of_the_method": "as §2", "units": {"herbicidal effect STEME": "%"}}
{"smiles": "Clc1cc2scnc2nc1-c1ccsc1Cl", "note": "[Example I-190]", "herbicidal effect STEME": 90}
{"system": "Veronica persica (VERPE)", "assay": "Herbicidal post-emergence action (B), 1280 g/ha", "assay_type": "in vivo", "details": "not given", "summary_of_the_method": "as §2", "units": {"herbicidal effect VERPE": "%"}}
{"smiles": "Clc1cc2scnc2nc1-c1ccsc1Cl", "note": "[Example I-190]", "herbicidal effect VERPE": 100}
{"system": "Alopecurus myosuroides (ALOMY)", "assay": "Herbicidal pre-emergence action (C), 320 g/ha", "assay_type": "in vivo", "details": "ca. 3 weeks", "text": "(§3) ABUTH: Abutilon theophrasti AGSTE: Agrostis tenuis ALOMY: Alopecurus myosuroides AMARE Amaranthus retroflexus DIGSA: Digitaria sanguinalis ECHCG: Echinochloa crus-galli KCHSC: Kochia scoparia LOLRI: Lolium rigidum MATIN: Matricaria inodora POAAN: Poa annua POLCO: Polygonum convolvulus SETVI: Setaria viridis STEME: Stellaria media VERPE: Veronica persica VIOTR: Viola tricolor\n(§4) Seeds of mono- and dicotyledonous weed plants and crop plants were sown, in plastic or organic planting pots, in sandy loam and covered with soil. The compounds according to the invention, formulated in the form of wettable powders (WP) or as emulsifiable concentrates (EC), were applied to the surface of the covering soil as aqueous suspension or emulsion, with the addition of 0.5% of an additive, at an application rate of 600 l of water/ha (converted).\n(§5) Following treatment, the pots were placed in a greenhouse and kept under optimum growth conditions for the test plants. The visual grading of the damage to the test plants was carried out after ca. 3 weeks in comparison to untreated controls (herbicidal effect in percent (%): 100% effect=plants have died off, 0% effect=as control plants).\n(§6) Tables C1 to C13 below show the effects of selected compounds of the general formula (I) according to table 1 on various harmful plants and an application rate corresponding to 320 g/ha obtained by the experimental procedure mentioned above.", "units": {"herbicidal effect ALOMY": "%"}}
{"smiles": "Clc1cc2scnc2nc1-c1ccsc1Cl", "note": "[Example I-190]", "herbicidal effect ALOMY": 100}
{"system": "Amaranthus retroflexus (AMARE)", "assay": "Herbicidal pre-emergence action (C), 320 g/ha", "assay_type": "in vivo", "details": "ca. 3 weeks", "text": "as §3, §4, §5, §6", "units": {"herbicidal effect AMARE": "%"}}
{"smiles": "Clc1cc2scnc2nc1-c1ccsc1Cl", "note": "[Example I-190]", "herbicidal effect AMARE": 90}
{"system": "Echinochloa crus-galli (ECHCG)", "assay": "Herbicidal pre-emergence action (C), 320 g/ha", "assay_type": "in vivo", "details": "ca. 3 weeks", "text": "as §3, §4, §5, §6", "units": {"herbicidal effect ECHCG": "%"}}
{"smiles": "Clc1cc2scnc2nc1-c1ccsc1Cl", "note": "[Example I-190]", "herbicidal effect ECHCG": 100}
{"system": "Lolium rigidum (LOLRI)", "assay": "Herbicidal pre-emergence action (C), 320 g/ha", "assay_type": "in vivo", "details": "ca. 3 weeks", "text": "as §3, §4, §5, §6", "units": {"herbicidal effect LOLRI": "%"}}
{"smiles": "Clc1cc2scnc2nc1-c1ccsc1Cl", "note": "[Example I-190]", "herbicidal effect LOLRI": 100}
{"system": "Matricaria inodora (MATIN)", "assay": "Herbicidal pre-emergence action (C), 320 g/ha", "assay_type": "in vivo", "details": "ca. 3 weeks", "text": "as §3, §4, §5, §6", "units": {"herbicidal effect MATIN": "%"}}
{"smiles": "Clc1cc2scnc2nc1-c1ccsc1Cl", "note": "[Example I-190]", "herbicidal effect MATIN": 80}
{"system": "Setaria viridis (SETVI)", "assay": "Herbicidal pre-emergence action (C), 320 g/ha", "assay_type": "in vivo", "details": "ca. 3 weeks", "text": "as §3, §4, §5, §6", "units": {"herbicidal effect SETVI": "%"}}
{"smiles": "Clc1cc2scnc2nc1-c1ccsc1Cl", "note": "[Example I-190]", "herbicidal effect SETVI": 100}
{"system": "Amaranthus retroflexus (AMARE)", "assay": "Herbicidal post-emergence action (D), 320 g/ha", "assay_type": "in vivo", "details": "ca. 3 weeks", "text": "as §3\n(§7) Seeds of mono- and dicotyledonous weed plants and crop plants were sown, in plastic or organic planting pots, in sandy loam, covered with soil and grown in a greenhouse under controlled growth conditions. 2 to 3 weeks after sowing, the test plants were sprayed in the single-leaf stage. The compounds according to the invention, formulated in form of wettable powders (WP) or as emulsifiable concentrates (EC), were sprayed onto the green plant parts as aqueous suspension or emulsion, with the addition of 0.5% of an additive, at an application rate of 600 l of water/ha (converted). The test plants were placed in the greenhouse for ca. 3 weeks under optimum growth conditions, and then the effect of the preparations was assessed visually in comparison with untreated controls (herbicidal effect in percent (%): 100% effect=plants have died off, 0% effect=as control plants).\n(§8) Tables D1 to D13 below show the effects of selected compounds of the general formula (I) according to table 1 on various harmful plants and an application rate corresponding to 320 g/ha obtained by the experimental procedure mentioned above.", "units": {"herbicidal effect AMARE": "%"}}
{"smiles": "Clc1cc2scnc2nc1-c1ccsc1Cl", "note": "[Example I-190]", "herbicidal effect AMARE": 80}
{"system": "Echinochloa crus-galli (ECHCG)", "assay": "Herbicidal post-emergence action (D), 320 g/ha", "assay_type": "in vivo", "details": "ca. 3 weeks", "text": "as §3, §7, §8", "units": {"herbicidal effect ECHCG": "%"}}
{"smiles": "Clc1cc2scnc2nc1-c1ccsc1Cl", "note": "[Example I-190]", "herbicidal effect ECHCG": 90}
{"system": "Setaria viridis (SETVI)", "assay": "Herbicidal post-emergence action (D), 320 g/ha", "assay_type": "in vivo", "details": "ca. 3 weeks", "text": "as §3, §7, §8", "units": {"herbicidal effect SETVI": "%"}}
{"smiles": "Clc1cc2scnc2nc1-c1ccsc1Cl", "note": "[Example I-190]", "herbicidal effect SETVI": 80}
{"system": "Veronica persica (VERPE)", "assay": "Herbicidal post-emergence action (D), 320 g/ha", "assay_type": "in vivo", "details": "ca. 3 weeks", "text": "as §3, §7, §8", "units": {"herbicidal effect VERPE": "%"}}
{"smiles": "Clc1cc2scnc2nc1-c1ccsc1Cl", "note": "[Example I-190]", "herbicidal effect VERPE": 80}
